Assay [1] relates to Lipogenic Cells. The assay is described as follows: Effect of fatty acids, lipogenic cells (Table 2). In kind it is cell-based.
For assay [2], the system named is Mutant Her-2/neu promoter. The experiment in a line: Luciferase reporter driven by Her-2/neu promoter with mutated PEA3 binding site. The format is cell-based, human. Particulars: for Luciferase activity relative to vehicle-treated wild-type promoter cells: mutant promoter, GLA 10 μg/mL for 24 hours. The protocol:
FIG. 11. Luciferase activity in transiently transfected cells. Luciferase activity was assayed in cells that were transiently transfected with a pGL2-Luc construct containing a luciferase reporter gene under the control of a Her-2/neu promoter fragment containing a wild-type (top panel, left) or mutant (top panel, right) PEA3 binding site as described herein. The magnitude of activation in Her-2/neu promoter-luciferase-transfected cells was determined after normalization of the luciferase activity obtained in cells co-transfected with equivalent amounts of the empty pGL2-Luciferase vector lacking the Her-2/neu promoter (-luciferase) and the internal control plasmid pRL-CMV. This control value was used to calculate the relative change in the transcriptional activities of Her-2/neu-promoter-luciferase-transfected cells in response to treatments after normalization to pRL-CMV. The activity of the wild-type promoter in untreated control cells was defined as 100%. […] One-factor ANOVA was used to analyzed differences in the percentages of luciferase activity between the various treatment groups.
The luciferase activities reported in Table 3 were assayed in cells that were transiently transfected with a pGL2-luciferase (Promega Inc., Madison, Wis.) construct containing a luciferase reporter gene under the control of a Her-2/neu promoter fragment containing a wild-type or mutant PEA3 binding site, as previously described by Xing et al. (36), incorporated herein by reference. Cells were transfected using FuGENE 6 transfection reagent (Roche Biochemicals, Indianapolis, Ind.) as directed by the manufacturer and were treated with vehicle (ethanol; EtOH) or γ-linolenic acid (10 μg/mL for 24 hours). Luciferase activity from cell extracts was detected with a Luciferase Assay System (Promega Inc.).
To examine whether the increased PEA3 levels might mediate the inhibition of Her-2/neu transcription in GLA-treated cells, the effect of GLA on transcription from a Her-2/neu promoter bearing a mutated PEA3 binding sequence, at −33 to −28, that is known to abolish PEA3 binding (36, incorporated herein by reference) was investigated. For this analysis we used the same luciferase reporter gene construct described above but containing the HER-2/neu promoter mutation at the PEA3 binding site (5′-GAG GAA-3′ at −33 to −28 changed to 5′-GAG CTC-3′).
To conduct Her-2/neu promoter activity assays, cells were initially transfected using FuGENE 6 transfection reagent (Roche Biochemicals, Indianapolis, Ind.) as directed by the manufacturer. Overnight-serum starved cancer cells seeded into 24-well plates (˜5×10^4 cells/well) were transfected in low-serum (0.1% FBS) media with 1.5 μg/well of the pGL2-luciferase (Promega, Madison, Wis.) construct containing a luciferase reporter gene driven by either an intact (Her-2/neu wild-type PEA3-binding site-luciferase) or by a mutated (Her-2/neu mutated PEA3-binding site-luciferase) Her-2/neu promoter fragment along with […] of the internal control plasmid pRL-CMV, which was used to correct for transfection efficiency. […] Approximately 24 hours after treatments, luciferase activities from cell extracts were detected with a luciferase Assay System following manufacturer's instructions (Promega, Madison, Wis., USA) using a Victor^2™ Multilabel Counter (Perkin-Elmer Life Sciences).
For orientation: Reporter assays use an easily measured gene product as a stand-in for the process of interest.

Assay [3] deals with BT-474 cells. The assay is described as follows: MTT cell viability / isobologram analysis, BT-474. In kind it is cell-based, human. On the procedure:
FIG. 10. […] Cells in exponential growth were harvested, seeded at a concentration of ˜5×10^3 cells/200 μl/well into 96-well plates and allowed to attach overnight. […] Agents were studied in combination concurrently, and they were not renewed during the entire period of cell exposure. After treatment, the medium was removed and replaced by fresh drug-free medium (100 μl/well), and MTT (5 mg/ml in phosphate-buffered saline [PBS]) was added to each well at a 1/10 volume. After 2-3 hours at 37° C., the supernatants were removed, 100 μl of dimethylsulfoxide was added to each well, and the plates were agitated. Absorbances were measured at 570 nm using a multiwell plate reader (Model Anthos Labtec 2010 1.7 reader). The cell viability effects from exposure of cells to each agent alone and to their combination were analyzed by generating concentration-effect curves as a plot of the fraction of unaffected (surviving) cells versus drug concentration. Dose-response curves were plotted as percentages of the control cell absorbances, which were obtained from control wells treated with appropriate concentrations of vehicles that were processed simultaneously. For each treatment, cell viability was evaluated as a percentage using the following equation: (A570 of treated sample/A570 of untreated sample)×100. […] All statistical tests were two-sided. […]

Regarding `CCCCCCCCC=CCCCCCCCC(=O)O` [OA, 9-octadecenoic acid], the “Effect of Fatty Acids: Lipogenic Cells” value in assay [1] was “No effect”. Also, the “regulation of luciferase reporter driven by promoter with mutated PEA3 site” value in assay [2] (OA-supplemented SK-Br3, SK-OV3 and NCI-N87 cells) is on record as “not subject to negative regulation”. In addition, in assay [3] (10 mM OA, sensitization to trastuzumab), the “sensitization factor (IC50 without OA / IC50 with OA)” value stood at 40 fold.
Take `CCCCCC=CCC=CCC=CCCCCC(=O)O` [GLA, 6,9,12-octadecatrienoic acid]: the “Effect of Fatty Acids: Lipogenic Cells” value in assay [1] is reported as “No effect”. In addition, the “Luciferase activity relative to vehicle-treated wild-type promoter cells” value in assay [2] (BT-474) is listed as 12% (95% CI = 9-15%); in assay [2] (MDA-MB-231), 61% (95% CI = 59-63%); in assay [2] (MDA-MB-453), 11% (95% CI = 3-19%); in assay [2] (NCI-N87) it was 19% (95% CI = 12-26%); in assay [2] (SK-Br3) it was 21% (95% CI = 18-24%); in assay [2] (SK-OV3), 14% (95% CI = 6-22%). In assay [3] (concurrent 10 μg/ml GLA), the “increase in sensitivity to trastuzumab” value is given as “approximately 30 fold”.

The record behind these values is patent publication US20070207975A1, “Materials and methods for treating and preventing Her-2/neu overexpressing, FAS-elevated cancer cells” (EVANSTON NORTHWESTERN HEALTHCARE, priority 2006, published 2007).
